Measurements taken from patent publication EP1785417A2, “Novel non-psychotropic cannabinoids” (priority 2000, dated 2001).

Key:
[1] = system: kainic acid; test: Radioligand binding: inhibition of kainic acid binding to membranes; parameters: species or system rat
[2] = even at doses several thousand times higher than the ED50 of HU-210; cited from earlier work
[3] = system: AMPA; test: Radioligand binding: inhibition of AMPA binding to membranes; parameters: species or system rat

CCCCCCC(C)(C)c1cc(O)c2c(c1)OC(C)(C)[C@H]1CC=C(CO)C[C@H]21 [211,007-000 HU-211, 1,1 dimethyl heptyl-(3 S,4S)-7-hydroxy-Δ^6-tetrahydrocannabinol, reference compound]
inhibition of kainic acid binding [1]: unable to inhibit | cannabimimetic activity [2]: inactive | inhibition of AMPA binding [3]: unable to inhibit
